The target in assay [1] is FAK (Homo sapiens (Human), UniProt Q05397). Kind of assay: Biochemical assay for FAK activity (LANCE TR-FRET, ULight-poly Glu,Ala,Tyr substrate). To be noted: GST-tagged FAK, 120 min reaction. The procedure: (§1) Biochemical Assay for FAK/Pyk2 Activity
(§2) GST-tagged FAK was purchased from Invitrogen (PV3832). GST-tagged PYK2 was purchased from Invitrogen (PV4567). The activity of FAK/PYK2 was measured by monitoring the phosphorylation of a fluorophore labeled ULight-poly Glu, Ala, Tyr (1:1:1) peptide substrate from Perkin Elmer (TRF0101) in the presence of ATP. The phosphorylated tyrosine residue was recognized by a LANCE Europium chelate labeled anti-phosphotyrosine (PY20) antibody from Perkin Elmer (AD0066). This brought the fluorophore and europium chelate in close proximity ([…]) that upon excitation at 320 nm by an Envision (PerkinElmer), energy can be transferred from the donor Europium chelate to the acceptor fluorophore. […] The strength of the signal was, therefore, directly proportional to the FAK/PYK2 activity.
(§3) To measure inhibitory activity of FAK/PYK2 inhibitors, compounds were first prepare as a 1 mM stock in 100% DMSO and 3-fold serial dilution was performed in a 96-well plate (Corning, 3897) to generate 12 different concentration of 100× stock. A 5 μl of 100× stock of each concentration was added to wells containing 95 μl of 1× reaction buffer (40 mM Tris, pH7.5, […], 1 mM DTT and 1 mM CHAPS) to generate 5× stock. Then 2 μl of 5× stock of each concentration was added to a 384 wells-OptiPlate (PerkinElmer, 6007299).
For FAK, 4 μl of 2.5 nM FAK, 1 ul of 8 μg/μl BSA and 1.5 μl of 666 nM ULight-poly Glu, Ala, Tyr (1:1:1) peptide substrate, prepared in above reaction buffer, were added to each well. The reaction was initiated by adding 1.5 μl of 33.3 μM ATP. The reaction was allowed to proceed for 120 min before being quenched with 5 μl of 40 mM EDTA stop buffer prepared in 1×LANCE detection buffer (PerkinElmer, CR97-100).
(§4) Upon quenching of the reaction, 5 μl of 8 nM anti-phosphotyrosine antibody was added to each well and incubated for 60 minutes. The plate was measured using an Envision (PerkinElmer) based on the theory mentioned above.
A general note: Time-resolved FRET reads energy transfer from a long-lived donor to a nearby acceptor.

Assay [2] deals with PYK2 (Homo sapiens (Human), UniProt Q14289). Kind of assay: Biochemical assay for PYK2 activity (LANCE TR-FRET, ULight-poly Glu,Ala,Tyr substrate). The following applies: GST-tagged PYK2, 40 min reaction. As to the method: as §1, §2, §3
PYK2, sequence (Q14289 whole entry): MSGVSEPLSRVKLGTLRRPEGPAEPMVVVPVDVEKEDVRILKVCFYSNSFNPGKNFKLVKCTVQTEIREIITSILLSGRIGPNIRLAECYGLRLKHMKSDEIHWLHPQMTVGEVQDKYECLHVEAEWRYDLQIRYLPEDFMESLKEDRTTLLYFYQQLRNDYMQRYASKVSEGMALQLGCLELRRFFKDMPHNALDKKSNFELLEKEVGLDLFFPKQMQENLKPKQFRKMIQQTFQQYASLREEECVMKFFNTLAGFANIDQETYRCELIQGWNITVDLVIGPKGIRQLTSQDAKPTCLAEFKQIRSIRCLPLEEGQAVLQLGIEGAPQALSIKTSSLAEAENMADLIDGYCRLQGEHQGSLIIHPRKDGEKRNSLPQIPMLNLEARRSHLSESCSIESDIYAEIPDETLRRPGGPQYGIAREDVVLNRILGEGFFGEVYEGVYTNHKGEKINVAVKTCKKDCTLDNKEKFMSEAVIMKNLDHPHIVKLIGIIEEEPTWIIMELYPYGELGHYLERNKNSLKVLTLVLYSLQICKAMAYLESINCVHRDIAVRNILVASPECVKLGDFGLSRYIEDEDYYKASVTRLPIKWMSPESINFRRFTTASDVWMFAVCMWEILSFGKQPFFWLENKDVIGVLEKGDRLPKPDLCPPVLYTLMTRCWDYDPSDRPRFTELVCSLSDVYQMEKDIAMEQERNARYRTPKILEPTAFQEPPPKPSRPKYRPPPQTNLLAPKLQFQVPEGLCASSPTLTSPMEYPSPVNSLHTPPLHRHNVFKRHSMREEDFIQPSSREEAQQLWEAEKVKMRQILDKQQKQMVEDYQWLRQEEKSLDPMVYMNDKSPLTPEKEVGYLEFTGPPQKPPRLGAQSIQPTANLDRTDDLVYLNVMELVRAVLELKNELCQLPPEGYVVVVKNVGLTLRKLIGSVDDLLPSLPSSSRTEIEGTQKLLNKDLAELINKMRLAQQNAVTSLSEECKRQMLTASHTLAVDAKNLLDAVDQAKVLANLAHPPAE
For PYK2, 5 μl of 2 nM PYK2 and 1.5 μl of 666 nM ULight-poly Glu, Ala, Tyr (1:1:1) peptide substrate, prepared in above reaction buffer, were added to each well. The reaction was initiated by adding 1.5 μl of 46.6 μM ATP. The reaction was allowed to proceed for 40 min before being quenched with 5 μl of 40 mM EDTA stop buffer prepared in 1×LANCE detection buffer (PerkinElmer, CR97-100).
as §4

pIC50: −log10 of the molar value. Some results are limits rather than exact numbers.

FAK, sequence (Q05397 whole entry): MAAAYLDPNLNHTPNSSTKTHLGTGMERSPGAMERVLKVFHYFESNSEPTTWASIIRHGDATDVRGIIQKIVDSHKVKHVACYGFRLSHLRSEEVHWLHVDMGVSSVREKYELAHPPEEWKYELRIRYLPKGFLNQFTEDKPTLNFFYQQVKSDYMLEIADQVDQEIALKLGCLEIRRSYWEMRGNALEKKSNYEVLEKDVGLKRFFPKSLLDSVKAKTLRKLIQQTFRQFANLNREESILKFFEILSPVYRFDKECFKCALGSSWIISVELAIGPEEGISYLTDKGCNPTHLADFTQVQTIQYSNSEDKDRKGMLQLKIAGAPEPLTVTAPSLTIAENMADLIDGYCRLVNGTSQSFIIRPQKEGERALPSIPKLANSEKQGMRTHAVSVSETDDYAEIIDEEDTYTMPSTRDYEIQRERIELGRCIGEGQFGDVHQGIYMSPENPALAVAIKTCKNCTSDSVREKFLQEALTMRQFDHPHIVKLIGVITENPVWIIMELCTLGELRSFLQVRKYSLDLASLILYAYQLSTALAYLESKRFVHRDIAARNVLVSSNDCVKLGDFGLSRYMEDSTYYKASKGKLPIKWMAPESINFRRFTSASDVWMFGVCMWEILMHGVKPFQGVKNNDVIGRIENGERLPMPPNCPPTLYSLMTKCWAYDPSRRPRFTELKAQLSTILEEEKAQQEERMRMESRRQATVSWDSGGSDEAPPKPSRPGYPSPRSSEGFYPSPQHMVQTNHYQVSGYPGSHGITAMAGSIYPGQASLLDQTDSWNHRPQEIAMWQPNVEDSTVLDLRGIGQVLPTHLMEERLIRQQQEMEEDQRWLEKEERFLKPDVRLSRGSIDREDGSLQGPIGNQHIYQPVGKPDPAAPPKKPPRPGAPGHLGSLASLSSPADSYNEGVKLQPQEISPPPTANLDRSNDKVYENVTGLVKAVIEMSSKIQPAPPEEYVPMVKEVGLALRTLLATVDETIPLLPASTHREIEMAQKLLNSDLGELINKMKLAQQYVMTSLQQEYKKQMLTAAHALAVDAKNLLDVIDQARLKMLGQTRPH

By pIC50 is commonly meant −log10 of the IC50, conventionally taken in molar units. A lower pIC50 goes with a large IC50. As to `CNC(=O)c1ccccc1Nc1nc(Nc2ccc(N3CCOCC3)cc2OC)nc2c1C(C)CN2` (racemic) [Example 23, (±)-2-(2-(2-methoxy-4-morpholinophenylamino)-5-methyl-6,7-dihydro-5H-pyrrolo[2,3-d]pyrimidin-4-ylamino)-N-methylbenzamide], the pIC50 in assay [1] and in assay [2] was above 7.30 throughout.
On to `COc1cc(N2CCOCC2)ccc1Nc1nc2c(c(Nc3ccccc3C(=O)N3CCCC3)n1)C(C)CN2` (racemic) [Example 24, (±)-(2-(2-(2-methoxy-4-morpholinophenylamino)-5-methyl-6,7-dihydro-5H-pyrrolo[2,3-d]pyrimidin-4-ylamino)phenyl)(pyrrolidin-1-yl)methanone], for which the results for the negative logarithm of the IC50 (pIC50) in assay [1] and in assay [2] were above 6.70 and above 6.30, respectively.
In the same order, the values of `CNS(=O)(=O)c1ccccc1Nc1nc(Nc2ccc(N3CCOCC3)cc2OC)nc2c1C(C)CN2` (racemic) [Example 25, (±)-2-(2-(2-methoxy-4-morpholinophenylamino)-5-methyl-6,7-dihydro-5H-pyrrolo[2,3-d]pyrimidin-4-ylamino)-N-methylbenzenesulfonamide] are above 7.30 and above 7.70.
In the same order, the values of `CCCNS(=O)(=O)c1ccccc1Nc1nc(Nc2ccc(N3CCOCC3)cc2OC)nc2c1C(C)CN2` (racemic) [Example 26, (±)-2-(2-(2-methoxy-4-morpholinophenylamino)-5-methyl-6,7-dihydro-5H-pyrrolo[2,3-d]pyrimidin-4-ylamino)-N-propylbenzenesulfonamide] are above 7.70 and above 7.70.
In the same order, the values of `COc1cc(N2CCOCC2)ccc1Nc1nc2c(c(Nc3ccccc3S(=O)(=O)NC3CCC3)n1)C(C)CN2` (racemic) [Example 27, (±)-N-cyclobutyl-2-(2-(2-methoxy-4-morpholinophenylamino)-5-methyl-6,7-dihydro-5H-pyrrolo[2,3-d]pyrimidin-4-ylamino)benzenesulfonamide] are above 7.70 and above 7.70.
For the compound `COc1cc(N2CCOCC2)ccc1Nc1nc2c(c(Nc3ccccc3S(=O)(=O)NC3CCCC3)n1)C(C)CN2` (racemic) [Example 28, (±)-N-cyclopentyl-2-(2-(2-methoxy-4-morpholinophenylamino)-5-methyl-6,7-dihydro-5H-pyrrolo[2,3-d]pyrimidin-4-ylamino)benzenesulfonamide], the pIC50 in assay [1] was above 6.52; in assay [2] it was above 7.30.
In the same order, the values of `COc1cc(N2CCOCC2)ccc1Nc1nc2c(c(Nc3ccccc3S(=O)(=O)NC3CCCCC3)n1)C(C)CN2` (racemic) [Example 29, (±)-N-cyclohexyl-2-(2-(2-methoxy-4-morpholinophenylamino)-5-methyl-6,7-dihydro-5H-pyrrolo[2,3-d]pyrimidin-4-ylamino)benzenesulfonamide] are above 7.30 and above 6.30.
Taken in the same sequence, the figures for `COc1cc(N2CCOCC2)ccc1Nc1nc2c(c(Nc3ccccc3NC(C)=O)n1)C(C)CN2` (racemic) [Example 30, (±)-N-(2-(2-(2-methoxy-4-morpholinophenylamino)-5-methyl-6,7-dihydro-5H-pyrrolo[2,3-d]pyrimidin-4-ylamino)phenyl)acetamide] were above 6.70 and above 6.70.
Taken in the same sequence, the figures for `COc1cc(N2CCOCC2)ccc1Nc1nc2c(c(Nc3ccccc3N(C)S(C)(=O)=O)n1)C(C)CN2` (racemic) [Example 31, (±)-N-(2-(2-(2-methoxy-4-morpholinophenylamino)-5-methyl-6,7-dihydro-5H-pyrrolo[2,3-d]pyrimidin-4-ylamino)phenyl)-N-methylmethanesulfonamide] were above 7.52 and above 7.70.
Turning to `COc1cc(N2CCOCC2)ccc1Nc1nc(NCc2ccccc2N(C)S(C)(=O)=O)c2c(n1)NCC2C` (racemic) [Example 32, (±)-N-(2-((2-(2-methoxy-4-morpholinophenylamino)-5-methyl-6,7-dihydro-5H-pyrrolo[2,3-d]pyrimidin-4-ylamino)methyl)phenyl)-N-methylmethanesulfonamide], the pIC50 is above 7.70 in assay [1] and below 6.00 in assay [2].
In the same order, the values of `COc1cc(N2CCOCC2)ccc1Nc1nc2c(c(Nc3cccc(C)n3)n1)C(C)CN2` (racemic) [Example 33, (±)-N^2-(2-methoxy-4-morpholinophenyl)-5-methyl-N^4-(6-methylpyridin-2-yl)-6,7-dihydro-5H-pyrrolo[2,3-d]pyrimidine-2,4-diamine] are above 6.30 and above 6.00.
For `COc1cc(N2CCOCC2)ccc1Nc1nc2c(c(Nc3ccc(F)c(F)c3)n1)C(C)CN2` (racemic) [Example 34, (±)-N^4-(3,4-difluorophenyl)-N^2-(2-methoxy-4-morpholinophenyl)-5-methyl-6,7-dihydro-5H-pyrrolo[2,3-d]pyrimidine-2,4-diamine], the negative logarithm of the IC50 (pIC50) was below 6.00 in assay [1] and above 6.00 in assay [2].
Regarding `CNC(=O)c1ccccc1Nc1nc(Nc2ccc(N3CCOCC3)cc2OC)nc2c1CCN2` [Example 1, 2-(2-(2-methoxy-4-morpholinophenylamino)-6,7-dihydro-5H-pyrrolo[2,3-d]pyrimidin-4-ylamino)-N-methylbenzamide], the pIC50 in assay [1] and in assay [2] was above 7.00 in each case.
Consider `CNC(=O)c1ccc2c(c1Nc1nc(Nc3ccc(N4CCOCC4)cc3OC)nc3c1CCN3)OCO2` [Example 2, 4-(2-(2-methoxy-4-morpholinophenylamino)-6,7-dihydro-5H-pyrrolo[2,3-d]pyrimidin-4-ylamino)-N-methylbenzo[d][1,3]dioxole-5-carboxamide], for which the pIC50 in assay [1] and in assay [2] was below 6.00 each time.
Regarding `COc1cc(N2CCOCC2)ccc1Nc1nc2c(c(Nc3ccccc3C(=O)N3CCCC3)n1)CCN2` [Example 3, (2-(2-(2-methoxy-4-morpholinophenylamino)-6,7-dihydro-5H-pyrrolo[2,3-d]pyrimidin-4-ylamino)phenyl)(pyrrolidin-1-yl)methanone], the pIC50 in assay [1] and in assay [2] was below 6.00 throughout.
Take `CNS(=O)(=O)c1ccccc1Nc1nc(Nc2ccc(N3CCOCC3)cc2OC)nc2c1CCN2` [Example 4, 2-(2-(2-methoxy-4-morpholinophenylamino)-6,7-dihydro-5H-pyrrolo[2,3-d]pyrimidin-4-ylamino)-N-methylbenzenesulfonamide]: the pIC50 in assay [1] is above 7.70; in assay [2] it was above 7.30.
Taken in the same sequence, the figures for `CCCNS(=O)(=O)c1ccccc1Nc1nc(Nc2ccc(N3CCOCC3)cc2OC)nc2c1CCN2` [Example 5, 2-(2-(2-methoxy-4-morpholinophenylamino)-6,7-dihydro-5H-pyrrolo[2,3-d]pyrimidin-4-ylamino)-N-propylbenzenesulfonamide] were above 7.70 and above 7.70.
Taken in the same sequence, the figures for `COc1cc(N2CCOCC2)ccc1Nc1nc2c(c(Nc3ccccc3S(=O)(=O)NC3CCC3)n1)CCN2` [Example 6, N-cyclobutyl-2-(2-(2-methoxy-4-morpholinophenylamino)-6,7-dihydro-5H-pyrrolo[2,3-d]pyrimidin-4-ylamino)benzenesulfonamide] were above 7.70 and above 7.70.
In the same order, the values of `COc1cc(N2CCOCC2)ccc1Nc1nc2c(c(Nc3ccccc3S(=O)(=O)NC3CCCC3)n1)CCN2` [Example 7, N-cyclopentyl-2-(2-(2-methoxy-4-morpholinophenylamino)-6,7-dihydro-5H-pyrrolo[2,3-d]pyrimidin-4-ylamino)benzenesulfonamide] are above 7.30 and above 7.00.
Turning to `COc1cc(N2CCOCC2)ccc1Nc1nc2c(c(Nc3ccccc3S(=O)(=O)NC3CCCCC3)n1)CCN2` [Example 8, N-cyclohexyl-2-(2-(2-methoxy-4-morpholinophenylamino)-6,7-dihydro-5H-pyrrolo[2,3-d]pyrimidin-4-ylamino)benzenesulfonamide], the figures for the pIC50 in assay [1] and in assay [2] were above 6.70 and above 6.30, respectively.
Taken in the same sequence, the figures for `COc1cc(N2CCOCC2)ccc1Nc1nc2c(c(Nc3ccccc3NC(C)=O)n1)CCN2` [Example 9, N-(2-(2-(2-methoxy-4-morpholinophenylamino)-6,7-dihydro-5H-pyrrolo[2,3-d]pyrimidin-4-ylamino)phenyl)acetamide] were above 6.00 and above 6.00.

For the origin of these results see US9428508B2, “2,4-diamino-6,7-dihydro-5H-pyrrolo[2,3]pyrimidine derivatives as FAK/Pyk2 inhibitors” (Centaurus BioPharma Co., Ltd., priority 2011, dated 2016).
